Experimental findings from US20230040770A1, “HETEROCYCLIC COMPOUND AND USE THEREOF” (TAKEDA PHARMACEUTICAL COMPANY LIMITED, priority 2019, published 2023) are described below.

The assay has as its target T1, human orexin type 2 receptor (Homo sapiens, UniProt O43614).
T1 construct: expressed in transfected cells
T1 sequence (O43614 1-444): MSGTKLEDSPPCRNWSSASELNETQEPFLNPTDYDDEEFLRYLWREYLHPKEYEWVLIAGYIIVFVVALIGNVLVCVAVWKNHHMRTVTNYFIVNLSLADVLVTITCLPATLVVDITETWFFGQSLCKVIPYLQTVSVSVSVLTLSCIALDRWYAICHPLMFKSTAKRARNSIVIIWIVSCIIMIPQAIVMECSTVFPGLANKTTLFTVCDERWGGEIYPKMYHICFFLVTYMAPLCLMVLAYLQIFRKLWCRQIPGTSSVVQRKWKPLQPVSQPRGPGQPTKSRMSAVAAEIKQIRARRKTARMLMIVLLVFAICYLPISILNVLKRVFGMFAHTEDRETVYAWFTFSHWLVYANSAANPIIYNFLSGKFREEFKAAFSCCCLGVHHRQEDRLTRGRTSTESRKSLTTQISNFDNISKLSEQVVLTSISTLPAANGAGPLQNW
Nature of the assay: Measurement of orexin type 2 receptor agonist activity (calcium indicator fluorescence, CHO cells forcibly expressing human OX2 receptor). The note with it: compound at 3 μM; 0% = DMSO, 100% = orexin A (human) 10 nM. The format is cell-based. The method in brief:
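CHO-dhfr cells stably expressing human OX2R, loaded with Fluo-4 AM (30 min 37 °C, then 30 min RT), then given test compound. Calcium fluorescence read by FDSS over ~2 min. Activity (%) scaled from DMSO (0%) to 10 nM final orexin A (100%).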
With `CCS(=O)(=O)N[C@@H]1[C@H](Cc2cccc(-c3ccc(F)c(F)c3F)c2F)N(C(=O)C2CCO2)CC1(F)F` (stereo partly drawn) [Example 470, N-{(2S,3R)-4,4-difluoro-1-(oxetane-2-carbonyl)-2-[(2,2′,3′,4′-tetrafluoro[1,1′-biphenyl]-3-yl)methyl]pyrrolidin-3-yl}ethanesulfonamide], the “OX2R agonist activity (3 μM, %)” value stood at 103%. Take `CCS(=O)(=O)N[C@@H]1[C@H](Cc2cccc(-c3ccc(F)c(F)c3F)c2F)N(C(=O)C2CCO2)CC1(F)F` (stereo partly drawn) [Example 471, N-{(2S,3R)-4,4-difluoro-1-(oxetane-2-carbonyl)-2-[(2,2′,3′,4′-tetrafluoro[1,1′-biphenyl]-3-yl)methyl]pyrrolidin-3-yl}ethanesulfonamide]: the “OX2R agonist activity (3 μM, %)” value is recorded as 94%. `CCS(=O)(=O)N[C@@H]1[C@H](Cc2cccc(-c3ccc(F)c(C)c3)c2F)N(C(=O)C2CCO2)CC1(F)F` (stereo partly drawn) [Example 472, N-[(2S,3R)-2-[(2,4′-difluoro-3′-methyl[1,1′-biphenyl]-3-yl)methyl]-4,4-difluoro-1-(oxetane-2-carbonyl)pyrrolidin-3-yl]ethanesulfonamide]: the “OX2R agonist activity (3 μM, %)” value was 95%.

Turning to `CCS(=O)(=O)N[C@@H]1[C@H](Cc2cccc(-c3cc(F)c(F)c(F)c3)c2F)N(C(=O)C2CCO2)CC1(F)F` (stereo partly drawn) [Example 473, N-{(2S,3R)-4,4-difluoro-1-(oxetane-2-carbonyl)-2-[(2,3′,4′,5′-tetrafluoro[1,1′-biphenyl]-3-yl)methyl]pyrrolidin-3-yl}ethanesulfonamide], the “OX2R agonist activity (3 μM, %)” value came out at 97%. To `CCS(=O)(=O)N[C@@H]1[C@H](Cc2cccc(-c3ccc(F)c(C)c3F)c2F)N(C(=O)C2CCO2)CC1(F)F` (stereo partly drawn) [Example 474, N-{(2S,3R)-4,4-difluoro-1-(oxetane-2-carbonyl)-2-[(2,2′,4′-trifluoro-3′-methyl[1,1′-biphenyl]-3-yl)methyl]pyrroldiin-3-yl}ethanesulfonamide] belongs 96%; to `CCS(=O)(=O)N[C@@H]1[C@H](Cc2cccc(-c3cc(F)c(F)c(F)c3)c2F)N(C(=O)C2CCO2)CC1(F)F` (stereo partly drawn) [Example 475, N-{(2S,3R)-4,4-difluoro-1-(oxetane-2-carbonyl)-2-[(2,3′,4′,5′-tetrafluoro[1,1′-biphenyl]-3-yl)methyl]pyrrolidin-3-yl}ethanesulfonamide], 100%.

`CCS(=O)(=O)N[C@@H]1[C@H](Cc2cccc(-c3ccc(F)c(C)c3)c2F)N(C(=O)C2CCO2)CC1(F)F` (stereo partly drawn) [Example 476, N-[(2S,3R)-2-[(2,4′-difluoro-3′-methyl[1,1′-biphenyl]-3-yl)methyl]-4,4-difluoro-1-(oxetane-2-carbonyl)pyrrolidin-3-yl]ethanesulfonamide]: the “OX2R agonist activity (3 μM, %)” value is 100%. For `CCS(=O)(=O)N[C@@H]1[C@H](Cc2cccc(-c3cc(F)c(F)cc3F)c2F)N(C(=O)C2CCO2)CC1(F)F` (stereo partly drawn) [Example 477, N-{(2S,3R)-4,4-difluoro-1-(oxetane-2-carbonyl)-2-[(2,2′,4′,5′-tetrafluoro[1,1′-biphenyl]-3-yl)methyl]pyrrolidin-3-yl}ethanesulfonamide], the “OX2R agonist activity (3 μM, %)” value worked out at 96%. `CCS(=O)(=O)N[C@@H]1[C@H](Cc2cccc(-c3ccc(F)c(C)c3F)c2F)N(C(=O)C2CCO2)CC1(F)F` (stereo partly drawn) [Example 478, N-{(2S,3R)-4,4-difluoro-1-(oxetane-2-carbonyl)-2-[(2,2′,4′-trifluoro-3′-methyl[1,1′-biphenyl]-3-yl)methyl]pyrroldiin-3-yl}ethanesulfonamide]: the “OX2R agonist activity (3 μM, %)” value was determined as 103%.

Take `O=C(C1CCO1)N1C[C@H](F)[C@H](NS(=O)(=O)C2CC2)[C@@H]1Cc1cccc(-c2cc(F)cc(F)c2)c1F` (stereo partly drawn) [Example 479, N-{(2S,3R,4S)-4-fluoro-1-(oxetane-2-carbonyl)-2-[(2,3′,5′-trifluoro[1,1′-biphenyl]-3-yl)methyl]pyrrolidin-3-yl}cyclopropanesulfonamide]: the “OX2R agonist activity (3 μM, %)” value came to 93%. To `O=C(C1CCO1)N1C[C@H](F)[C@H](NS(=O)(=O)C2CC2)[C@@H]1Cc1cccc(-c2cccc(F)c2F)c1F` (stereo partly drawn) [Example 480, N-{(2S,3R,4S)-4-fluoro-1-(oxetane-2-carbonyl)-2-[(2,2′,3′-trifluoro[1,1′-biphenyl]-3-yl)methyl]pyrrolidin-3-yl}cyclopropanesulfonamide] belongs 101%. On to `O=C(C1CCO1)N1C[C@H](F)[C@H](NS(=O)(=O)C2CC2)[C@@H]1Cc1cccc(-c2cc(F)ccc2F)c1F` (stereo partly drawn) [Example 481, N-{(2S,3R,4S)-4-fluoro-1-(oxetane-2-carbonyl)-2-[(2,2′,5′-trifluoro[1,1′-biphenyl]-3-yl)methyl]pyrrolidin-3-yl}cyclopropanesulfonamide], for which the “OX2R agonist activity (3 μM, %)” value is recorded as 104%. To `O=C(C1CCO1)N1C[C@H](F)[C@H](NS(=O)(=O)C2CC2)[C@@H]1Cc1cccc(-c2ccccc2)c1F` (stereo partly drawn) [Example 482, N-[(2S,3R,4S)-4-fluoro-2-[(2-fluoro[1,1′-biphenyl]-3-yl)methyl]-1-(oxetane-2-carbonyl)pyrrolidin-3-yl]cyclopropanesulfonamide] belongs 100%.

Turning to `O=C(C1CCO1)N1C[C@H](F)[C@H](NS(=O)(=O)C2CC2)[C@@H]1Cc1cccc(-c2ccccc2F)c1F` (stereo partly drawn) [Example 483, N-[(2S,3R,4S)-2-[(2,2′-difluroo[1,1′-biphenyl]-3-yl)methyl]-4-fluoro-1-(oxetane-2-carbonyl)pyrrolidin-3-yl]cyclopropanesulfonamide], the “OX2R agonist activity (3 μM, %)” value worked out at 108%.

Regarding `Cc1cccc(-c2cccc(C[C@H]3[C@@H](NS(=O)(=O)C4CC4)[C@@H](F)CN3C(=O)C3CCO3)c2F)c1` (stereo partly drawn) [Example 484, N-[(2S,3R,4S)-4-fluoro-2-[(2-fluoro-3′-methyl[1,1′-biphenyl]-3-yl)methyl]-1-(oxetane-2-carbonyl)pyrrolidin-3-yl]cyclopropanesulfonamide], the “OX2R agonist activity (3 μM, %)” value turned out to be 90%. Take `O=C(C1CCO1)N1C[C@H](F)[C@H](NS(=O)(=O)C2CC2)[C@@H]1Cc1cccc(-c2cccc(Cl)c2)c1F` (stereo partly drawn) [Example 485, N-[(2S,3R,4S)-2-[(3′-chloro-2-fluoro[1,1′-biphenyl]-3-yl)methyl]-4-fluoro-1-(oxetane-2-carbonyl)pyrrolidin-3-yl]cyclopropanesulfonamide]: the “OX2R agonist activity (3 μM, %)” value is listed as 93%.

For the molecule `Cc1cc(F)cc(-c2cccc(C[C@H]3[C@@H](NS(=O)(=O)C4CC4)[C@@H](F)CN3C(=O)C3CCO3)c2F)c1` (stereo partly drawn) [Example 486, N-[(2S,3R,4S)-2-[(2,3′-difluoro-5′-methyl[1,1′-biphenyl]-3-yl)methyl]-4-fluoro-1-(oxetane-2-carbonyl)pyrrolidin-3-yl]cyclopropanesulfonamide], the “OX2R agonist activity (3 μM, %)” value amounted to 88%.

As to `Cc1cccc(-c2cccc(C[C@H]3[C@@H](NS(=O)(=O)C4CC4)[C@@H](F)CN3C(=O)C3CCO3)c2F)c1F` (stereo partly drawn) [Example 487, N-[(2S,3R,4S)-2-[(2,2′-difluoro-3′-methyl[1,1′-biphenyl]-3-yl)methyl]-4-fluoro-1-(oxetane-2-carbonyl)pyrroldiin-3-yl]cyclopropanesulfonamide], the “OX2R agonist activity (3 μM, %)” value came out at 95%.
